According to ChEMBL document CHEMBL3885861, “Open TG-GATES”:

Species on record: Rattus norvegicus
Assay: Open TG-GATES - Regimen: Single
Format: toxicity, organism-based, Sprague-Dawley
Set-up: regimen Single, gender Male, age 6 weeks
Conditions: in vivo, po, route gavage; for APTT / Bas / Eos / Fbg / Hb / Ht / Lym / MCH / MCHC / MCV / Mono / Neu / PT / RBC / Ret / WBC / Plat: tissue Blood; for KIDNEY_L / KIDNEY_R / KIDNEY_TOTAL: tissue Kidney; for ALP / ALT / AST / BUN / CRE / Ca / DBIL / GLC / K / LDH / Na / PL / RALB / TBIL / TC / TG / TP / gamma-GTP / IP: tissue Plasma; for LIVER: tissue Liver
[1] = 50 mg/kg, 3 h, dose level Middle

Oc1ncnc2[nH]ncc12 [ALLOPURINOL] showed an APTT (15 mg/kg, 3 h, dose level Low) of 16.3 s, a Bas (15 mg/kg, 3 h, dose level Low) of 0% and an Eos (15 mg/kg, 3 h, dose level Low) of 1%. It also gave a Fbg (15 mg/kg, 3 h, dose level Low) of 209.6 mg/dL, a Hb (15 mg/kg, 3 h, dose level Low) of 13.9 g/dL and a Ht (15 mg/kg, 3 h, dose level Low) of 41.2%. It also gave a Lym (15 mg/kg, 3 h, dose level Low) of 80.4%, an MCH (15 mg/kg, 3 h, dose level Low) of 22 pg and an MCHC (15 mg/kg, 3 h, dose level Low) of 33.8%. It also gave an MCV (15 mg/kg, 3 h, dose level Low) of 65 fL, a Mono (15 mg/kg, 3 h, dose level Low) of 7.4% and a Neu (15 mg/kg, 3 h, dose level Low) of 11.2%. For the same compound, the PT (15 mg/kg, 3 h, dose level Low) was 12.5 s, the RBC (15 mg/kg, 3 h, dose level Low) was 636 x10_4/ul and the Ret (15 mg/kg, 3 h, dose level Low) was 8.4%. The WBC (15 mg/kg, 3 h, dose level Low) was 99.2 x10_2/uL, the KIDNEY_L (15 mg/kg, 3 h, dose level Low) was 1 g and the KIDNEY_R (15 mg/kg, 3 h, dose level Low) was 1 g. For the same compound, the KIDNEY_TOTAL (15 mg/kg, 3 h, dose level Low) was 2 g, the ALP (15 mg/kg, 3 h, dose level Low) was 884.4 IU/L and the ALT (15 mg/kg, 3 h, dose level Low) was 35.4 IU/L. The AST (15 mg/kg, 3 h, dose level Low) was 64.4 IU/L, the BUN (15 mg/kg, 3 h, dose level Low) was 12.4 mg/dL and the CRE (15 mg/kg, 3 h, dose level Low) was 0.5 mg/dL. The Ca (15 mg/kg, 3 h, dose level Low) was 11.3 mg/dL, the DBIL (15 mg/kg, 3 h, dose level Low) was 0.086 mg/dL and the GLC (15 mg/kg, 3 h, dose level Low) was 183.8 mg/dL. For the same compound, the K (15 mg/kg, 3 h, dose level Low) was 4.9 meq/L, the LDH (15 mg/kg, 3 h, dose level Low) was 115.4 IU/L and the Na (15 mg/kg, 3 h, dose level Low) was 139.2 meq/L. The PL (15 mg/kg, 3 h, dose level Low) was 132.8 mg/dL, the RALB (15 mg/kg, 3 h, dose level Low) was 3.7 g/dL and the TBIL (15 mg/kg, 3 h, dose level Low) was 0.4 mg/dL. The TC (15 mg/kg, 3 h, dose level Low) was 73.4 mg/dL, the TG (15 mg/kg, 3 h, dose level Low) was 54.6 mg/dL and the TP (15 mg/kg, 3 h, dose level Low) was 5.5 g/dL. For the same compound, the gamma-GTP (15 mg/kg, 3 h, dose level Low) was 1.6 IU/L, the TERMINAL_BW (15 mg/kg, 6 h, dose level Low) was 209.5 g and the APTT (15 mg/kg, 6 h, dose level Low) was 16.8 s. It also gave a Bas (15 mg/kg, 6 h, dose level Low) of 0%, an Eos (15 mg/kg, 6 h, dose level Low) of 0.4% and a Fbg (15 mg/kg, 6 h, dose level Low) of 206.8 mg/dL. For the same compound, the Hb (15 mg/kg, 6 h, dose level Low) was 13.6 g/dL, the Ht (15 mg/kg, 6 h, dose level Low) was 40.5% and the Lym (15 mg/kg, 6 h, dose level Low) was 79%. The MCH (15 mg/kg, 6 h, dose level Low) was 21.8 pg, the MCHC (15 mg/kg, 6 h, dose level Low) was 33.5% and the MCV (15 mg/kg, 6 h, dose level Low) was 65.3 fL. For the same compound, the Mono (15 mg/kg, 6 h, dose level Low) was 6.2%, the Neu (15 mg/kg, 6 h, dose level Low) was 14.2% and the PT (15 mg/kg, 6 h, dose level Low) was 12.4 s. The Plat (15 mg/kg, 6 h, dose level Low) was 109.1 x10_4/uL, the RBC (15 mg/kg, 6 h, dose level Low) was 620.2 x10_4/ul and the Ret (15 mg/kg, 6 h, dose level Low) was 8.1%. The WBC (15 mg/kg, 6 h, dose level Low) was 101.3 x10_2/uL, the KIDNEY_L (15 mg/kg, 6 h, dose level Low) was 1 g and the KIDNEY_R (15 mg/kg, 6 h, dose level Low) was 1 g. It also gave a KIDNEY_TOTAL (15 mg/kg, 6 h, dose level Low) of 2 g, an LIVER (15 mg/kg, 6 h, dose level Low) of 9.6 g and an ALP (15 mg/kg, 6 h, dose level Low) of 695 IU/L. For the same compound, the ALT (15 mg/kg, 6 h, dose level Low) was 30 IU/L, the AST (15 mg/kg, 6 h, dose level Low) was 58 IU/L and the BUN (15 mg/kg, 6 h, dose level Low) was 11 mg/dL. The CRE (15 mg/kg, 6 h, dose level Low) was 0.5 mg/dL, the Ca (15 mg/kg, 6 h, dose level Low) was 11.4 mg/dL and the DBIL (15 mg/kg, 6 h, dose level Low) was 0.024 mg/dL. It also gave a GLC (15 mg/kg, 6 h, dose level Low) of 187 mg/dL, an IP (15 mg/kg, 6 h, dose level Low) of 10.1 mg/dL and a K (15 mg/kg, 6 h, dose level Low) of 4.8 meq/L. The LDH (15 mg/kg, 6 h, dose level Low) was 74.8 IU/L, the Na (15 mg/kg, 6 h, dose level Low) was 138.4 meq/L and the PL (15 mg/kg, 6 h, dose level Low) was 126.6 mg/dL. For the same compound, the RALB (15 mg/kg, 6 h, dose level Low) was 3.7 g/dL, the TBIL (15 mg/kg, 6 h, dose level Low) was 0.3 mg/dL and the TC (15 mg/kg, 6 h, dose level Low) was 67.6 mg/dL. It also gave a TG (15 mg/kg, 6 h, dose level Low) of 60.8 mg/dL, a TP (15 mg/kg, 6 h, dose level Low) of 5.5 g/dL and a gamma-GTP (15 mg/kg, 6 h, dose level Low) of 1 IU/L. For the same compound, the TERMINAL_BW (15 mg/kg, 9 h, dose level Low) was 204 g, the APTT (15 mg/kg, 9 h, dose level Low) was 16.6 s and the Bas (15 mg/kg, 9 h, dose level Low) was 0%. It also gave an Eos (15 mg/kg, 9 h, dose level Low) of 1.2%, a Fbg (15 mg/kg, 9 h, dose level Low) of 221.6 mg/dL and a Hb (15 mg/kg, 9 h, dose level Low) of 13.6 g/dL. The Ht (15 mg/kg, 9 h, dose level Low) was 40.7%, the Lym (15 mg/kg, 9 h, dose level Low) was 66.4% and the MCH (15 mg/kg, 9 h, dose level Low) was 21.7 pg. It also gave an MCHC (15 mg/kg, 9 h, dose level Low) of 33.4%, an MCV (15 mg/kg, 9 h, dose level Low) of 65 fL and a Mono (15 mg/kg, 9 h, dose level Low) of 11.8%. The Neu (15 mg/kg, 9 h, dose level Low) was 20.4%, the PT (15 mg/kg, 9 h, dose level Low) was 12.3 s and the RBC (15 mg/kg, 9 h, dose level Low) was 626.6 x10_4/ul. For the same compound, the Ret (15 mg/kg, 9 h, dose level Low) was 7.9%, the WBC (15 mg/kg, 9 h, dose level Low) was 92.7 x10_2/uL and the KIDNEY_L (15 mg/kg, 9 h, dose level Low) was 1 g. The KIDNEY_R (15 mg/kg, 9 h, dose level Low) was 1 g, the KIDNEY_TOTAL (15 mg/kg, 9 h, dose level Low) was 1.9 g and the LIVER (15 mg/kg, 9 h, dose level Low) was 9.1 g. It also gave an ALP (15 mg/kg, 9 h, dose level Low) of 837 IU/L, an ALT (15 mg/kg, 9 h, dose level Low) of 27.6 IU/L and an AST (15 mg/kg, 9 h, dose level Low) of 58.8 IU/L. For the same compound, the BUN (15 mg/kg, 9 h, dose level Low) was 13 mg/dL, the CRE (15 mg/kg, 9 h, dose level Low) was 0.4 mg/dL and the DBIL (15 mg/kg, 9 h, dose level Low) was 0.042 mg/dL. For the same compound, the GLC (15 mg/kg, 9 h, dose level Low) was 198.8 mg/dL, the K (15 mg/kg, 9 h, dose level Low) was 4.8 meq/L and the LDH (15 mg/kg, 9 h, dose level Low) was 74.6 IU/L. It also gave a Na (15 mg/kg, 9 h, dose level Low) of 138.6 meq/L, a PL (15 mg/kg, 9 h, dose level Low) of 129.8 mg/dL and an RALB (15 mg/kg, 9 h, dose level Low) of 3.8 g/dL. For the same compound, the TBIL (15 mg/kg, 9 h, dose level Low) was 0.3 mg/dL, the TC (15 mg/kg, 9 h, dose level Low) was 69.2 mg/dL and the TG (15 mg/kg, 9 h, dose level Low) was 53.2 mg/dL. The TP (15 mg/kg, 9 h, dose level Low) was 5.7 g/dL, the gamma-GTP (15 mg/kg, 9 h, dose level Low) was 1.4 IU/L and the TERMINAL_BW (15 mg/kg, 24 h, dose level Low) was 224.8 g. The APTT (15 mg/kg, 24 h, dose level Low) was 16.1 s, the Bas (15 mg/kg, 24 h, dose level Low) was 0% and the Eos (15 mg/kg, 24 h, dose level Low) was 1.2%. It also gave a Fbg (15 mg/kg, 24 h, dose level Low) of 213.8 mg/dL, a Hb (15 mg/kg, 24 h, dose level Low) of 13.6 g/dL and a Ht (15 mg/kg, 24 h, dose level Low) of 40.8%. The Lym (15 mg/kg, 24 h, dose level Low) was 79.4%, the MCH (15 mg/kg, 24 h, dose level Low) was 21.8 pg and the MCHC (15 mg/kg, 24 h, dose level Low) was 33.3%. It also gave an MCV (15 mg/kg, 24 h, dose level Low) of 65.4 fL, a Mono (15 mg/kg, 24 h, dose level Low) of 7.2% and a Neu (15 mg/kg, 24 h, dose level Low) of 12.4%. It also gave a PT (15 mg/kg, 24 h, dose level Low) of 12.2 s, a Plat (15 mg/kg, 24 h, dose level Low) of 113.4 x10_4/uL and an RBC (15 mg/kg, 24 h, dose level Low) of 623 x10_4/ul. The Ret (15 mg/kg, 24 h, dose level Low) was 7.9%, the WBC (15 mg/kg, 24 h, dose level Low) was 93.3 x10_2/uL and the KIDNEY_L (15 mg/kg, 24 h, dose level Low) was 1 g. For the same compound, the KIDNEY_R (15 mg/kg, 24 h, dose level Low) was 1 g, the KIDNEY_TOTAL (15 mg/kg, 24 h, dose level Low) was 2 g and the ALP (15 mg/kg, 24 h, dose level Low) was 884.8 IU/L. The ALT (15 mg/kg, 24 h, dose level Low) was 33.2 IU/L, the AST (15 mg/kg, 24 h, dose level Low) was 61.6 IU/L and the BUN (15 mg/kg, 24 h, dose level Low) was 17.8 mg/dL. For the same compound, the CRE (15 mg/kg, 24 h, dose level Low) was 0.5 mg/dL, the DBIL (15 mg/kg, 24 h, dose level Low) was 0.024 mg/dL and the GLC (15 mg/kg, 24 h, dose level Low) was 187.4 mg/dL. The IP (15 mg/kg, 24 h, dose level Low) was 8 mg/dL, the K (15 mg/kg, 24 h, dose level Low) was 5 meq/L and the LDH (15 mg/kg, 24 h, dose level Low) was 85.2 IU/L. The Na (15 mg/kg, 24 h, dose level Low) was 138.8 meq/L, the PL (15 mg/kg, 24 h, dose level Low) was 149.8 mg/dL and the RALB (15 mg/kg, 24 h, dose level Low) was 3.6 g/dL. For the same compound, the TBIL (15 mg/kg, 24 h, dose level Low) was 0.3 mg/dL, the TC (15 mg/kg, 24 h, dose level Low) was 78 mg/dL and the TG (15 mg/kg, 24 h, dose level Low) was 91.4 mg/dL. For the same compound, the TP (15 mg/kg, 24 h, dose level Low) was 5.7 g/dL, the gamma-GTP (15 mg/kg, 24 h, dose level Low) was 1.8 IU/L and the TERMINAL_BW [1] was 210.9 g. It also gave an APTT [1] of 16.6 s and a Bas [1] of 0%.
